Data reported in patent publication US12581252B2, “Substituted pyrrolo[3,4-b]pyridines as PI3K-α inhibitors” (Relay Therapeutics, Inc., priority 2020, dated 2026).

Molecular target: H1047R PIK3CA enzyme (Homo sapiens, UniProt P42336, H1047R)
Assay: ADP-Glo Biochemical PIK3CA Kinase Assay

Chain of H1047R PIK3CA enzyme (P42336 whole entry H1047R): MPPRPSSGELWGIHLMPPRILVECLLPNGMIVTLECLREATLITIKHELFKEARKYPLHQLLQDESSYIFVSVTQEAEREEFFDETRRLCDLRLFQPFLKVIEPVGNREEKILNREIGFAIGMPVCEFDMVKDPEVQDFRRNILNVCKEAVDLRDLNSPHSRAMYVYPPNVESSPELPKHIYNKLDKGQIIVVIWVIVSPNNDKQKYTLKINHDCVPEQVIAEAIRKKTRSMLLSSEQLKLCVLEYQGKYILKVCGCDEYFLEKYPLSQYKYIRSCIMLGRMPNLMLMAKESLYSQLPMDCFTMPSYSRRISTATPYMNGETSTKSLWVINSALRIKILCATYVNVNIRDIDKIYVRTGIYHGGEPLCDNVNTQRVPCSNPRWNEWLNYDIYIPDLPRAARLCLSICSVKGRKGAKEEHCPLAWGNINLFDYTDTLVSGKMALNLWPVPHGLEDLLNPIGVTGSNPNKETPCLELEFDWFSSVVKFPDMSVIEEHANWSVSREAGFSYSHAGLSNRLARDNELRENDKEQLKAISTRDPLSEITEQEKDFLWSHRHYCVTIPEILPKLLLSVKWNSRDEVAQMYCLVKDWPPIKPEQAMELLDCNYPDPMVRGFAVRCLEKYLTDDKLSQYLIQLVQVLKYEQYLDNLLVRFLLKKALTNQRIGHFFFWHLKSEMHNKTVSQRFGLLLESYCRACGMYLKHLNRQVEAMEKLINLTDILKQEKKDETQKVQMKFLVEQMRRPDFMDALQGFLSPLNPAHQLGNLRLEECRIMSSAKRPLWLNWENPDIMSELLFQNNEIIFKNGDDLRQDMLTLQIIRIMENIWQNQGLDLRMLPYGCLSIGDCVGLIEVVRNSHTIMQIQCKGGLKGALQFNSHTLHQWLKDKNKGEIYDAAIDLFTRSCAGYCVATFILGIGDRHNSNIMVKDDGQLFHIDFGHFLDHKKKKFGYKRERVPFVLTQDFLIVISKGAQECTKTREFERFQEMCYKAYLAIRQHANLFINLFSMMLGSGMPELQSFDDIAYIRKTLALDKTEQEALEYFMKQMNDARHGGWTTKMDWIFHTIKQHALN
Chain of H1047R PIK3CA enzyme (P27986 whole entry partner): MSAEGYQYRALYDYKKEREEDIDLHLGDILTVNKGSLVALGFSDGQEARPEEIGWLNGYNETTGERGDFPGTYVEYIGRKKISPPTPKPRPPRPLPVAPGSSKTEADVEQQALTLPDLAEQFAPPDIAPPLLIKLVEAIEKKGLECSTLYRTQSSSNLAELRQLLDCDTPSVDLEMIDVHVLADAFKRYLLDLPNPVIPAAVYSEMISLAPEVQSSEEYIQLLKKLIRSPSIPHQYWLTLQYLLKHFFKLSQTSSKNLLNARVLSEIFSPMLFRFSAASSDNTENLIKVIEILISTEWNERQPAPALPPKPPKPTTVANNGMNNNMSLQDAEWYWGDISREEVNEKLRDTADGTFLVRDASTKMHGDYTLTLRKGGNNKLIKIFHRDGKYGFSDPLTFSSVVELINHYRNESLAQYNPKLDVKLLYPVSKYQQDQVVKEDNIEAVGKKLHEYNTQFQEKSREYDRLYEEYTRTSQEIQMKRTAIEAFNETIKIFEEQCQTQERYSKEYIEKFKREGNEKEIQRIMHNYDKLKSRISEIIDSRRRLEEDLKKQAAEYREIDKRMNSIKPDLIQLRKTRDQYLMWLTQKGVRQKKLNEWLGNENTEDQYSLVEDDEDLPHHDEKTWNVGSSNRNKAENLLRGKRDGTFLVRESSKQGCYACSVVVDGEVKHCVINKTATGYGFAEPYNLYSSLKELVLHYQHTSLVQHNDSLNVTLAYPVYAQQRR

| SMILES | IC50 [nM] |
| --- | --- |
| N#CCCc1cc(NC(=O)N2C[C@@H](O)c3cc(F)ccc32)c2c(c1)C(=O)N[C@@H]2c1cc(F)ccc1Cl (single isomer, unassigned) [Compound I-2348] | 1000 to 10000 |
| N#CCCc1cc(NC(=O)N2C[C@H](O)c3cc(F)ccc32)c2c(c1)C(=O)N[C@@H]2c1cc(F)ccc1Cl (single isomer, unassigned) [Compound I-2349] | 1000 to 10000 |
| O=C1N[C@@H](c2cc(F)ccc2Cl)c2c(NC(=O)N3C[C@@H](O)c4cc(F)ccc43)cc(-n3ccccc3=O)cc21 (single isomer, unassigned) [Compound I-2351] | 100 to 500 |
| O=C1N[C@H](c2cc(F)ccc2Cl)c2c(NC(=O)N3C[C@@H](O)c4cc(F)ccc43)cc(-n3ccccc3=O)cc21 (single isomer, unassigned) [Compound I-2352] | 1000 to 10000 |
| O=C1N[C@H](c2cc(F)ccc2Cl)c2c(NC(=O)N3C[C@H](O)c4cc(F)ccc43)cc(-n3ccccc3=O)cc21 (single isomer, unassigned) [Compound I-2353] | 1000 to 10000 |
| O=C1N[C@H](c2cc(F)ccc2Cl)c2c(NC(=O)N3CCc4cc(F)ccc43)cc(-c3cnn(C(F)F)c3)cc21 (single isomer, unassigned) [Compound I-2356] | 1000 to 10000 |
| O=C1N[C@H](c2cc(F)ccc2Cl)c2c(NC(=O)N3C[C@@H](O)c4cc(F)ccc43)cc(-n3cccn3)cc21 (single isomer, unassigned) [Compound I-2365] | 500 to 1000 |
| O=C1N[C@@H](c2cc(F)ccc2Cl)c2c(NC(=O)N3C[C@@H](O)c4cc(F)ccc43)cc(-n3cccn3)cc21 (single isomer, unassigned) [Compound I-2366] | 1000 to 10000 |
| O=C1N[C@H](c2cc(F)ccc2Cl)c2c(NC(=O)N3C[C@H](O)c4cc(F)ccc43)cc(-n3cccn3)cc21 (single isomer, unassigned) [Compound I-2367] | 1000 to 10000 |
| O=C1N[C@@H](c2cc(F)ccc2Cl)c2c(NC(=O)N3C[C@H](O)c4cc(F)ccc43)cc(-n3ccnn3)cc21 (single isomer, unassigned) [Compound I-2368] | 1000 to 10000 |
| O=C1N[C@@H](c2cc(F)ccc2Cl)c2c(NC(=O)N3C[C@@H](O)c4cc(F)ccc43)cc(-n3ccnn3)cc21 (single isomer, unassigned) [Compound I-2370] | 500 to 1000 |
| O=C1N[C@H](c2cc(F)ccc2Cl)c2c(NC(=O)N3C[C@@H](O)c4cc(F)ccc43)cc(-n3ccnn3)cc21 (single isomer, unassigned) [Compound I-2371] | 1000 to 10000 |
| C[C@@H]([C@H]1C[C@H](O)CN1C(=O)Nc1cccc2c1[C@H](c1cc(F)ccc1Cl)NC2=O)C(F)(F)F (single isomer, unassigned) [Compound I-2378] | 10000 to 100000 |
| C[C@H]([C@H]1C[C@H](O)CN1C(=O)Nc1cccc2c1[C@H](c1cc(F)ccc1Cl)NC2=O)C(F)(F)F (single isomer, unassigned) [Compound I-2379] | 10000 to 100000 |
| O=C1N[C@H](c2cc(F)ccc2Cl)c2c(NC(=O)N3C[C@@](O)(C(F)(F)F)c4ccccc43)cccc21 (single isomer, unassigned) [Compound I-2383] | 10000 to 100000 |
| O=C1N[C@@H](c2cc(F)ccc2Cl)c2c(NC(=O)N3C[C@](O)(C(F)(F)F)c4ccccc43)cccc21 (single isomer, unassigned) [Compound I-2384] | 1000 to 10000 |
| O=C1N[C@H](c2cc(F)ccc2Cl)c2c(NC(=O)N3C[C@](O)(C(F)(F)F)c4ccccc43)cccc21 (single isomer, unassigned) [Compound I-2385] | 1000 to 10000 |
| O=C(Nc1cc(/N=C2/N[C@H](C(F)(F)F)CO2)cc2c1[C@@H](c1cc(F)ccc1Cl)NC2=O)c1cc(F)cc(C(F)(F)F)c1 (single isomer, unassigned) [Compound I-2389] | 1000 to 10000 |

| SMILES | IC50 [nM] |
| --- | --- |
| O=C(Nc1cc(/N=C2/N[C@@H](C(F)(F)F)CO2)cc2c1[C@@H](c1cc(F)ccc1Cl)NC2=O)c1cc(F)cc(C(F)(F)F)c1 (single isomer, unassigned) [Compound I-2390] | 1000 to 10000 |
| C[C@@H]([C@@H]1C[C@H](O)CN1C(=O)Nc1cccc2c1[C@H](c1cc(F)ccc1Cl)NC2=O)C(F)(F)F (single isomer, unassigned) [Compound I-2393] | 500 to 1000 |
| O=C1N[C@H](c2cc(F)ccc2Cl)c2c(NC(=O)N3C[C@H](O)c4cc(F)ccc43)cc(Cl)cc21 (single isomer, unassigned) [Compound I-2399] | 1000 to 10000 |
| O=C1N[C@@H](c2cc(F)ccc2Cl)c2c(NC(=O)N3C[C@H](O)c4cc(F)ccc43)cc(Cl)cc21 (single isomer, unassigned) [Compound I-2400] | 100 to 500 |
| O=C1N[C@@H](c2cc(F)ccc2Cl)c2c(NC(=O)N3C[C@@H](O)c4cc(F)ccc43)cc(Cl)cc21 (single isomer, unassigned) [Compound I-2401] | 10000 to 100000 |
| N#Cc1cnn(-c2cc(NC(=O)N3C[C@@H](O)c4cc(F)ccc43)c3c(c2)C(=O)N[C@H]3c2cc(F)ccc2Cl)c1 (single isomer, unassigned) [Compound I-2405] | ≤ 100 |
| N#Cc1cnn(-c2cc(NC(=O)N3C[C@H](O)c4cc(F)ccc43)c3c(c2)C(=O)N[C@@H]3c2cc(F)ccc2Cl)c1 (single isomer, unassigned) [Compound I-2406] | 1000 to 10000 |
| Nc1cc(NC(=O)N2C[C@H](O)c3cc(F)ccc32)c2c(c1)C(=O)N[C@@H]2c1cc(F)ccc1Cl (single isomer, unassigned) [Compound I-2412] | 1000 to 10000 |
| Nc1cc(NC(=O)N2C[C@H](O)c3cc(F)ccc32)c2c(c1)C(=O)N[C@H]2c1cc(F)ccc1Cl (single isomer, unassigned) [Compound I-2413] | 10000 to 100000 |
| CC(C)(C)C1CCCN1C(=O)Nc1cccc2c1C(c1cc(F)ccc1Cl)NC2=O (single isomer, unassigned) [Compound I-2432] | 500 to 1000 |
| CC(C)(C)C1CCCN1C(=O)Nc1cccc2c1C(c1cc(F)ccc1Cl)NC2=O (single isomer, unassigned) [Compound I-2433] | 1000 to 10000 |
| NCCc1cc(NC(=O)N2C[C@@H](O)c3cc(F)ccc32)c2c(c1)C(=O)N[C@@H]2c1cc(F)ccc1Cl (single isomer, unassigned) [Compound I-2444] | 100 to 500 |
| NCCc1cc(NC(=O)N2C[C@H](O)c3cc(F)ccc32)c2c(c1)C(=O)N[C@H]2c1cc(F)ccc1Cl (single isomer, unassigned) [Compound I-2445] | 1000 to 10000 |
| NCCc1cc(NC(=O)N2C[C@@H](O)c3cc(F)ccc32)c2c(c1)C(=O)N[C@H]2c1cc(F)ccc1Cl (single isomer, unassigned) [Compound I-2446] | 1000 to 10000 |
| O=C1N[C@H](c2cc(F)ccc2Cl)c2c(NC(=O)N3C[C@@H](O)c4cc(F)ccc43)cc(-c3ccc(=O)n(C(F)F)c3)cc21 (single isomer, unassigned) [Compound I-2449] | 100 to 500 |
| O=C1N[C@@H](c2cc(F)ccc2Cl)c2c(NC(=O)N3C[C@H](O)c4cc(F)ccc43)cc(-c3ccc(=O)n(C(F)F)c3)cc21 (single isomer, unassigned) [Compound I-2450] | 1000 to 10000 |
| O=C1N[C@@H](c2cc(F)ccc2Cl)c2c(NC(=O)N3C[C@@H](O)c4cc(F)ccc43)cc(-c3ccc(=O)n(C(F)F)c3)cc21 (single isomer, unassigned) [Compound I-2451] | 1000 to 10000 |
| CC(C)[C@@]1(O)CN(C(=O)Nc2cccc3c2[C@H](c2cc(F)ccc2Cl)NC3=O)c2ccc(F)cc21 (single isomer, unassigned) [Compound I-2452] | 1000 to 10000 |
